From PMC4770093, “The role of kinetic context in apparent biased agonism at GPCRs” (Nature Communications, 2016)
“And” between values parts separate entries of the source, which are not always exact repeats. Equal entries are not always repeated.

What was measured:
[1] = target: T1, D2LR (Homo sapiens, UniProt P14416); experiment: Inhibition of forskolin-induced cAMP production (BRET CAMYEL biosensor); conditions: for Emax cAMP: relative to the maximal response of ropinirole; for Inhibition of cAMP production measured using a CAMYEL BRET biosensor, Net BRET: single experiments n = 1, 2, 3
Protocol: Flp-In-CHO cells stably expressing the D2LR were seeded at a density of 2,000,000 cells per 10-cm dish and were transfected the following day using polyethylenimine as the transfection reagent. The cells were transfected with 3 μg CAMYEL, to allow the detection of cAMP levels within the cells. Twenty-four hours after transfection, the cells were plated into 96-well CulturPlates (PerkinElmer) and grown overnight. The cells were equilibrated in Hank's balanced salt solution at 37 °C (or 25 °C when indicated) before starting the experiment. The cells were co-stimulated with the agonists and 10 μM forskolin for the indicated timeframes when the BRET readings were captured. Coelenterazine (Promega) was added at a final concentration of 5 μM at least 3 min before measurement. […] Net BRET was determined by subtraction of the vehicle control co-added with 10 μM forskolin.

[2] = target: T1, D2LR; experiment: Gαi1 G protein activation (BRET); assay type: cell-based; parameters: expressed in transfected cells; conditions: 5 minute timepoint
Protocol: G protein activation. Flp-In-CHO cells stably expressing the D2LR were seeded at a density of 2,000,000 cells per 10-cm dish and were transfected the following day using polyethylenimine as the transfection reagent. […] Twenty-four hours after transfection, the cells were plated into 96-well CulturPlates (PerkinElmer) and grown overnight. The cells were equilibrated in Hank's balanced salt solution at 37 °C before starting the experiment. The cells were stimulated with the agonists for the indicated timeframes when the BRET readings were captured. Coelenterazine (Promega) was added at a final concentration of 5 μM at least 3 min before measurement. […] Net BRET was determined by subtraction of the vehicle control from the agonist-induced response.

[3] = tested on: D2R; experiment: Simulation of receptor occupancy over time from kon and koff; conditions: simulation with a KD concentration of each agonist
Excerpt: We extended these studies with a Tag-lite receptor binding assay using a D2R construct with an amino-terminal SNAP tag and the fluorescently labelled agonist (±)-4′-amino-2-(N-phenethyl-N-propyl)-amino-5-hydroxytetralin (PPHT). […] The association rate of a ligand is often thought to be diffusion limited. […] Using these kinetic parameters, we performed a simulation to estimate the receptor occupancy of a KD concentration of each agonist over time (Fig. 4e).
Kinetic binding parameters of kon (a), koff (b) and t1/2 (c) were determined in a competition kinetic binding assay using a Tag-lite binding assay and the fluorescently labelled agonist PPHT as the tracer ligand (Supplementary Table 6). […] All values are expressed as mean±s.e.m. from three experiments. (e) The values of kon and koff obtained in the competition kinetic assay were used to simulate receptor occupancy over time using equation (9) and the concentration of ligand equivalent to its KD (see Supplementary Table 6).
where Ymax reflects maximum binding of a concentration of ligand and kob is determined by equation (8).

T1 sequence (P14416 whole entry): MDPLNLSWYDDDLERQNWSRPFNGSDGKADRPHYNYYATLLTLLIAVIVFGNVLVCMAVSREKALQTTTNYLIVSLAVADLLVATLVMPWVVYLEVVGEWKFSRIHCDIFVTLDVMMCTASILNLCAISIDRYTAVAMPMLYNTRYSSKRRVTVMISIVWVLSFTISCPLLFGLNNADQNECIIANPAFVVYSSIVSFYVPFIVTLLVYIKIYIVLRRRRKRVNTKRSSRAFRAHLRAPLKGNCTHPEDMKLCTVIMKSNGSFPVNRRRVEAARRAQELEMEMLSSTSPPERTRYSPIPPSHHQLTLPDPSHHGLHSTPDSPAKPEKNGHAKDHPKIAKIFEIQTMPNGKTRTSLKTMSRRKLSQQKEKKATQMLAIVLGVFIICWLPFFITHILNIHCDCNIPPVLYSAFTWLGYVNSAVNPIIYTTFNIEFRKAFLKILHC

In the case of CCCN1CCC[C@@H](c2cccc(O)c2)C1 [S-3PPP, (S)-(-)-3-(3-hydroxyphenyl)-N-propylpiperidine], the “Emax cAMP” value ([1]; 2 min) is reported as 73 ± 1.9, the “Emax cAMP” value ([1]; 5 min) is reported as 73 ± 2.0 and the “Log(τ/KA) cAMP” value ([1]; 5 minute timepoint, Flp-In-CHO-D2LR) is reported as 6.65 ± 0.06. For the same compound, the “ΔLog(τ/KA) cAMP” value ([1]; 5 minute timepoint, dopamine as reference agonist) was -1.40 ± 0.08, the “Emax cAMP” value ([1]; 10 min) was 70 ± 1.7 and the “Emax cAMP” value ([1]; 15 min) was 70 ± 1.9. For the same compound, the “Emax cAMP” value ([1]; 30 min) was 71 ± 2.5, the “Emax cAMP” value ([1]; 45 min) was 64 ± 1.4 and the “Emax cAMP” value ([1]; 60 min) was 53 ± 2.4. For the same compound, the “Emax cAMP” value ([1]; 75 min) was 66 ± 1.4, the “Emax cAMP” value ([1]; 90 min) was 60 ± 0.8 and the “Inhibition of cAMP production measured using a CAMYEL BRET biosensor, Net BRET” value (from here on “Inhibition of cAMP production measured”) ([1]; time 2.21667 mins) was 0.05465 and 0.08466 and 0.07325. For the same compound, the “Inhibition of cAMP production measured” value ([1]; time 2.58333 mins) was 0.05879 and 0.0813 and 0.07011, the “Inhibition of cAMP production measured” value ([1]; time 2.95 mins) was 0.05876 and 0.09107 and 0.0617 and the “Inhibition of cAMP production measured” value ([1]; time 3.31667 mins) was 0.05926 and 0.0872 and 0.07317. The “Inhibition of cAMP production measured” value ([1]; time 3.68333 mins) was 0.06005 and 0.08327 and 0.07534, the “Inhibition of cAMP production measured” value ([1]; time 4.05 mins) was 0.08108 and 0.08891 and 0.07666 and the “Inhibition of cAMP production measured” value ([1]; time 4.41667 mins) was 0.07291 and 0.08859 and 0.07671. For the same compound, the “Inhibition of cAMP production measured” value ([1]; time 4.78333 mins) was 0.08207 and 0.09068 and 0.07598, the “Inhibition of cAMP production measured” value ([1]; time 5.15 mins) was 0.088 and 0.08877 and 0.07517 and the “Inhibition of cAMP production measured” value ([1]; time 5.51667 mins) was 0.08023 and 0.0868 and 0.07779. For the same compound, the “Inhibition of cAMP production measured” value ([1]; time 5.88333 mins) was 0.08241 and 0.08562 and 0.08229, the “Inhibition of cAMP production measured” value ([1]; time 6.25 mins) was 0.0777 and 0.08078 and 0.07833 and the “Inhibition of cAMP production measured” value ([1]; time 6.61667 mins) was 0.07786 and 0.08188 and 0.07763. The “Inhibition of cAMP production measured” value ([1]; time 6.98333 mins) was 0.08463 and 0.08155 and 0.08058, the “Inhibition of cAMP production measured” value ([1]; time 7.35 mins) was 0.08243 and 0.07743 and 0.07354 and the “Inhibition of cAMP production measured” value ([1]; time 7.71667 mins) was 0.08152 and 0.0852 and 0.08224. For the same compound, the “Inhibition of cAMP production measured” value ([1]; time 8.08333 mins) was 0.08811 and 0.08583 and 0.07638, the “Inhibition of cAMP production measured” value ([1]; time 8.45 mins) was 0.08386 and 0.08753 and 0.07171 and the “Inhibition of cAMP production measured” value ([1]; time 8.81667 mins) was 0.09076 and 0.08128 and 0.08398. The “Inhibition of cAMP production measured” value ([1]; time 9.18333 mins) was 0.08865 and 0.08603 and 0.07348, the “Inhibition of cAMP production measured” value ([1]; time 9.55 mins) was 0.08292 and 0.0837 and 0.08159 and the “Inhibition of cAMP production measured” value ([1]; time 9.91667 mins) was 0.09198 and 0.07873 and 0.08223. For the same compound, the “Inhibition of cAMP production measured” value ([1]; time 10.2833 mins) was 0.08942 and 0.08142 and 0.08126, the “Inhibition of cAMP production measured” value ([1]; time 10.65 mins) was 0.09447 and 0.08477 and 0.08651 and the “Inhibition of cAMP production measured” value ([1]; time 11.0167 mins) was 0.09406 and 0.0745 and 0.08653. The “Inhibition of cAMP production measured” value ([1]; time 11.3833 mins) was 0.09952 and 0.0798 and 0.08963, the “Inhibition of cAMP production measured” value ([1]; time 11.75 mins) was 0.09797 and 0.09183 and 0.0831 and the “Inhibition of cAMP production measured” value ([1]; time 12.1167 mins) was 0.0995 and 0.08775 and 0.0921. The “Inhibition of cAMP production measured” value ([1]; time 12.4833 mins) was 0.08767 and 0.08489 and 0.09746, the “Inhibition of cAMP production measured” value ([1]; time 12.85 mins) was 0.09546 and 0.09264 and 0.08756 and the “Inhibition of cAMP production measured” value ([1]; time 13.2167 mins) was 0.09597 and 0.0888 and 0.1009. The “Inhibition of cAMP production measured” value ([1]; time 13.5833 mins) was 0.09698 and 0.09198 and 0.09379, the “Inhibition of cAMP production measured” value ([1]; time 13.95 mins) was 0.09269 and 0.09222 and 0.0998 and the “Inhibition of cAMP production measured” value ([1]; time 14.3167 mins) was 0.1016. The “Log(τ/KA) Gαi1 activation” value ([2]; Flp-In-CHO-D2LR) was 6.60 ± 0.12, the “ΔLog(τ/KA) Gαi1 activation” value ([2]; dopamine as reference agonist) was -0.58 ± 0.15 and the “time to maximal receptor occupancy” value [3] was ≤ 1 min.
